Measurements: patent US12115178B2, “Acylated active agents and methods of their use for the treatment of autoimmune disorders” (Flagship Pioneering Innovations V, Inc., priority 2018, dated 2024)

Experiments:
Format in all cases: in vitro ADME
[1] = Assay 1. Stability in Simulated Gastric Fluid (SGF); conditions: SGF pH 1.6 with pepsin, 1 μM, 37° C.
Procedure, shortened: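 Degradation rate from LC/MS of acetonitrile-quenched aliquots (T0, then regular intervals). Fresh SGF (pH 1.6 NaCl, FaSSIF powder, pepsin 0.1 mg/mL) held compound at 1 μM final, 37° C; 1 mM DMSO stock.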

[2] = Assay 3. In vitro Colonic Material Stability Assay; conditions: colonic material slurry, anaerobic, 1 or 10 μM
Method: Assay 3. In vitro Colonic Material Stability Assay. This assay was used to assess the stability of an acylated active agent in a large intestine. All experiments were performed in an anaerobic chamber containing 90% nitrogen, 5% hydrogen and 5% carbon dioxide. Colonic material was resuspended as a slurry (15% w/v final concentration) in pre-reduced, anaerobically sterilized dilution blanks (Anaerobe Systems AS-908). The colonic material was then inoculated into 96 well plates containing YCFAC media (Anaerobe Systems AS-680) or other suitable media (6.7 μL slurry into 1 mL total media). Compounds or groups of compounds were added to each individual well to reach a final analyte concentration of 1 or 10 μM, and the material was mixed by pipetting. Sample was removed after set timepoints (0, 120, 240, 480, 1440, 2880 minutes after initiation of the assay), quenched with acetonitrile containing internal standard, and analyzed by LC/MS.

[3] = Assay 2. Stability in Simulated Intestinal Fluid (SIF); conditions: SIF pH 6.7 with pancreatin, 1 μM, 37° C.
Procedure, shortened: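 Degradation rates came from LC/MS of acetonitrile-quenched samples drawn at intervals, starting at T0. The medium was freshly made pH 6.7 FaSSIF containing pancreatin, and test compound was present at 1 µM while being shaken at 37 °C.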

Row | Compound | Assay 1 (SGF) (% Remaining @ 1 hour) [1] | Assay 3 (% Remaining at 24 h) [2] | Assay 2 (SIF) (% @ Remaining 4 hours) [3]
1 | CCC(=O)O[C@@H]1[C@@H](OC(=O)CC)[C@H](OC(=O)/C=C/c2c[nH]c3ccccc23)OC[C@@H]1OC(=O)CC [Compound 100, (2S,3R,4S,5S)-3,4,5-tris(propanoyloxy)oxan-2-yl (2E)-3-(1H-indol-3-yl)prop-2-enoate] | B (25-75% of the tested compound remaining) | A (<25% of the tested compound remaining) | 
2 | CCCC(=O)Oc1ccc(N)cc1C(=O)O [Compound 16, 5-amino-2-butanoyloxy-benzoic acid] |  | C (>75% of the tested compound remaining) | C (>75% of the tested compound remaining)
3 | CCCC(=O)O[C@@H]1[C@@H](OC(=O)CCC)[C@H](OC)OC[C@H]1OC(=O)CCC [Compound 88, (2R,3R,4S,5R)-4,5-bis(butanoyloxy)-2-methoxyoxan-3-yl butanoate] |  | A (<25% of the tested compound remaining) | A (<25% of the tested compound remaining)
4 | CCCC(=O)O[C@@H]1[C@@H](OC(=O)CCC)[C@H](Oc2ccc(N)cc2C(=O)O)OC[C@H]1OC(=O)CCC [Compound 183, 5-amino-2-[(2S,3R,4S,5R)-3,4,5-tri(butanoyloxy)tetrahydropyran-2-yl]oxy-benzoic acid] |  | B (25-75% of the tested compound remaining) | B (25-75% of the tested compound remaining)
5 | CCCC(=O)OC[C@H]1O[C@H](OC)[C@H](OC(=O)CCC)[C@@H](OC(=O)CCC)[C@H]1OC(=O)CCC [Compound 56, [(2R,3S,4S,5R,6S)-3,4,5-tris(butanoyloxy)-6-methoxyoxan-2-yl]methyl butanoate] |  | A (<25% of the tested compound remaining) | A (<25% of the tested compound remaining)
6 | CCC(=O)OC[C@H]1O[C@@H](OC)[C@H](OC(=O)CC)[C@@H](OC(=O)CC)[C@@H]1OC(=O)CC [Compound 59, [(2R,3R,4S,5R,6R)-6-methoxy-3,4,5-tris(propanoyloxy)oxan-2-yl]methyl propanoate] |  | A (<25% of the tested compound remaining) | A (<25% of the tested compound remaining)
7 | CCCC(=O)O[C@H]1[C@H](OC(=O)CCC)[C@@H](OC(=O)CCc2c[nH]c3ccccc23)O[C@@H](C)[C@H]1OC(=O)CCC [Compound 87, (2R,3S,4R,5R,6S)-4,5-bis(butanoyloxy)-2-{[3-(1H-indol-3-yl)propanoyl]oxy}-6-methyloxan-3-yl butanoate] | B (25-75% of the tested compound remaining) | A (<25% of the tested compound remaining) | 
8 | CCCC(=O)Oc1cc(OC(=O)CCC)c2c(c1)O[C@H](c1cc(OC(=O)CCC)c(OC(=O)CCC)c(OC(=O)CCC)c1)[C@H](OC(=O)c1cc(OC(=O)CCC)c(OC(=O)CCC)c(OC(=O)CCC)c1)C2 [Compound 1, [(2R,3R)-5,7-di(butanoyloxy)-2-[3,4,5-tri(butanoyloxy)phenyl]chroman-3-yl] 3,4,5-tri(butanoyloxy)benzoate] |  | B (25-75% of the tested compound remaining) | C (>75% of the tested compound remaining)
9 | CCCC(=O)OC[C@H]1O[C@@H](OC)[C@H](OC(=O)CCC)[C@@H](OC(=O)CCC)[C@@H]1OC(=O)CCC [Compound 58, [(2R,3R,4S,5R,6R)-3,4,5-tris(butanoyloxy)-6-methoxyoxan-2-yl]methyl butanoate] |  | A (<25% of the tested compound remaining) | A (<25% of the tested compound remaining)
10 | CCCC(=O)O[C@@H]1[C@H](OC(=O)CCC)[C@H](C)OC(Oc2ccccc2C(=O)O)[C@H]1OC(=O)CCC (stereo partly drawn) [Compound 29, 2-(((3S,4R,5R,6S)-3,4,5-tris(butyryloxy)-6-methyltetrahydro-2H-pyran-2-yl)oxy)benzoic acid] | C (>75% of the tested compound remaining) | C (>75% of the tested compound remaining) | 
11 | CCC(=O)OC[C@H]1O[C@H](OC(=O)/C=C/c2c[nH]c3ccccc23)[C@H](OC(=O)CC)[C@@H](OC(=O)CC)[C@@H]1OC(=O)CC [Compound 99, (2R,3R,4S,5R,6R)-3,4,5-tris(propanoyloxy)-6-[(propanoyloxy)methyl]oxan-2-yl (2E)-3-(1H-indol-3-yl)prop-2-enoate] | B (25-75% of the tested compound remaining) | A (<25% of the tested compound remaining) | 
12 | C[C@@H]1O[C@@H](OC(=O)CCc2c[nH]c3ccccc23)[C@@H](OC(=O)CCc2c[nH]c3ccccc23)[C@H](OC(=O)CCc2c[nH]c3ccccc23)[C@@H]1OC(=O)CCc1c[nH]c2ccccc12 [Compound 64, (2S,3S,4R,5R,6S)-3,4,5-tris({[3-(1H-indol-3-yl)propanoyl]oxy})-6-methyloxan-2-yl 3-(1H-indol-3-yl)propanoate] |  | A (<25% of the tested compound remaining) | A (<25% of the tested compound remaining)
13 | CCCC(=O)O[C@H]1[C@H](OC(=O)CCC)[C@H](Oc2ccccc2C(=O)O)O[C@@H](C)[C@H]1OC(=O)CCC [Compound 23, 2-(((2S,3S,4R,5R,6S)-3,4,5-tris(butyryloxy)-6-methyltetrahydro-2H-pyran-2-yl)oxy)benzoic acid] |  | C (>75% of the tested compound remaining) | B (25-75% of the tested compound remaining)
14 | CCCC(=O)O[C@@H]1[C@@H](OC(=O)CCC)[C@@H](Oc2ccc(N)cc2C(=O)O)OC[C@H]1OC(=O)CCC [Compound 18, 5-amino-2-[(2R,3R,4S,5R)-3,4,5-tri(butanoyloxy)tetrahydropyran-2-yl]oxy-benzoic acid] | C (>75% of the tested compound remaining) | C (>75% of the tested compound remaining) | 
15 | CCCC(=O)O[C@@H]1[C@@H](OC(=O)CCC)[C@H](Oc2ccc(N)cc2C(=O)O)OC[C@H]1O [Compound 32, 5-amino-2-(((2S,3R,4S,5R)-3,4-bis(butyryloxy)-5-hydroxytetrahydro-2H-pyran-2-yl)oxy)benzoic acid] |  | C (>75% of the tested compound remaining) | B (25-75% of the tested compound remaining)
16 | CCCC(=O)O[C@@H]1[C@@H](OC(=O)CCC)[C@H](C)O[C@H](Oc2ccccc2C(=O)O)[C@@H]1OC(=O)CCC [Compound 38, 2-(((2R,3R,4R,5S,6S)-3,4,5-tris(butyryloxy)-6-methyltetrahydro-2H-pyran-2-yl)oxy)benzoic acid] |  | C (>75% of the tested compound remaining) | C (>75% of the tested compound remaining)
17 | CCCC(=O)O[C@H]1[C@H](OC(=O)CCC)COC(O)[C@@H]1OC(=O)CCC (stereo partly drawn) [Compound 158, (3R,4S,5R)-4,5-bis(butanoyloxy)-2-hydroxyoxan-3-yl butanoate] |  | A (<25% of the tested compound remaining) | A (<25% of the tested compound remaining)
18 | O=C(CCc1c[nH]c2ccccc12)O[C@H]1OC[C@@H](OC(=O)CCc2c[nH]c3ccccc23)[C@@H](OC(=O)CCc2c[nH]c3ccccc23)[C@H]1OC(=O)CCc1c[nH]c2ccccc12 [Compound 150, (2R,3R,4R,5R)-3,4,5-tris({[3-(1H-indol-3-yl)propanoyl]oxy})oxan-2-yl 3-(1H-indol-3-yl)propanoate] |  | A (<25% of the tested compound remaining) | A (<25% of the tested compound remaining)
19 | CCCC(=O)O[C@@H]1[C@@H](OC(=O)CCC)[C@H](C)O[C@H](OC(=O)CCc2c[nH]c3ccccc23)[C@@H]1OC(=O)CCC [Compound 86, (2R,3R,4R,5S,6S)-4,5-bis(butanoyloxy)-2-{[3-(1H-indol-3-yl)propanoyl]oxy}-6-methyloxan-3-yl butanoate] | B (25-75% of the tested compound remaining) | A (<25% of the tested compound remaining) | 
20 | CCCC(=O)OC[C@H]1O[C@@H](Oc2ccc(N)cc2C(=O)O)[C@H](OC(=O)CCC)[C@@H](OC(=O)CCC)[C@@H]1OC(=O)CCC [Compound 36, 5-amino-2-(((2S,3R,4S,5R,6R)-3,4,5-tris(butyryloxy)-6-((butyryloxy)methyl)tetrahydro-2H-pyran-2-yl)oxy)benzoic acid] |  | C (>75% of the tested compound remaining) | C (>75% of the tested compound remaining)
